The subject of one data set is Cirsium arvense. Kind of data set: Phytotoxic activity against Cirsium arvense (Canada thistle) assessed as necrosis spot at 6 x 10^-3 M after 3 days by leaf puncture assay. The data set is classed as functional, organism-based.
Another data set relates to Geotrichum candidum. Kind of data set: Antifungal activity against Galactomyces geotrichum up to 100 ug/disk. The data set is classed as functional, organism-based.
The subject of the next data set is Lactobacillus sp. Kind of data set: Antibacterial activity against Lactobacillus sp. at 5 ug/disk. The data set is classed as functional, organism-based.
In the next data set the test system is Artemia salina. Kind of data set: Zootoxic activity against larvae of Artemia salina (brine shrimp) assessed as mortality. The data set is classed as ADME, organism-based. Particulars: in vivo.
The test system of another data set is Escherichia coli. Kind of data set: Antibacterial activity against Escherichia coli up to 100 ug/disk. The data set is classed as functional, organism-based.
Data set [1] in a line: Zootoxic activity against larvae of Artemia salina (brine shrimp) assessed as mortality at 10^-4 M. The data set is classed as ADME, organism-based. Conditions: in vivo.

Activity calls are given as the source filed them. The rule behind the calls is not given here.

Consider `CCN1C(=O)/C2=C3\CO[C@@](OC)([C@@H](O)CCC[C@]21C)[C@H]3O` [PHYLLOSTICTINE B], for which the outcome in the data set on Cirsium arvense and with Lactobacillus sp. was Active. The result in the data set on Geotrichum candidum and in the data set with Escherichia coli was inactive. In addition, in the data set on Artemia salina, the Activity entry is reported as “Non-toxic”.

Take `CCN1C(=O)/C2=C3\CO[C@@](OC)([C@@H](O)CCCCC[C@]21C)[C@H]3O` [PHYLLOSTICTINE A]: the result with Cirsium arvense and in the data set on Lactobacillus sp. was Active. The mortality at 100 µM in data set [1] is 24%. Besides, the result in the data set on Geotrichum candidum and in the data set on Escherichia coli was inactive.

In the case of `CCN1C(=O)/C2=C3\CO[C@@](OC)([C@@H](O)CCCCC[C@]21C(C)O)[C@H]3O` (some centres not stated), in the data set on Cirsium arvense, the result was inactive.

In the case of `CO[C@]12OC/C(=C3\C(=O)N(C)CC[C@]3(C)C(=O)CCCC[C@@H]1O)[C@@H]2O`, the result with Cirsium arvense was Active.
